# Test system: Maize
# Assay: Maize trials: soil and foliar application of nano chitosan fertilizer product on maize crops (greenhouse pots)
# Format: in vivo
# Protocol: Maize trials. Assays were also performed to evaluate soil and foliar application of nano chitosan fertilizer product on maize crops. These trials were also performed to investigate the effect of different concentrations of bulk and nano chitosan on the growth and productivity of maize. The maize trials included a further formulation for nano-chitosan urea, namely a urea-chitosan nanocomposite. The urea-chitosan nanocomposite was prepared by evaporating or freeze-drying the nano-chitosan fertilizer aqueous solution. The current urea-chitosan nanocomposite was prepared by evaporating an aqueous solution of nanochitosan urea at 50° C. for two days in an oven. Nanocomposite morphology of the urea-chitosan nanocomposite was confirmed based on SEM and compositional analysis shown in FIGS. 6A-6E and TEM shown in FIGS. 7A-7E. For SEM and compositional analysis on solid form, samples were studied in Zeiss EVO 15 after coating samples with gold to avoid charging. The powder was mounted on an aluminum stub. Based on the EDS analysis, it appeared that chitosan and urea was present in this powder. For the TEM analysis, a small amount of the sample was taken in a small vial, diluted with DM water and sonicated for 15 mins. One to two drops of this solution was taken on a formvar grid, the excess liquid was blotted on a filter paper, and TEM analysis was carried out Tecnai F20 at representative magnifications shown in FIGS. A thin grey film in the background with very small sized darker particles were apparent. An occasional larger sized film was also seen. Because urea dissolves in water, the morphology seen in the images of this sample was primarily urea-chitosan nanocomposite (nanoparticles). The process of drying in an oven over two days ensured steady removal of water without disturbing the nano-morphology of the urea-chitosan nanocomposite. Table 6 presents the trial details for the soil and foliar application of nano chitosan fertilizer product on maize crops. [table] Control samples were T1 (urea granules, at different time); T2 (urea and zinc, commercially available); and T13 (urea powder). As shown, Table 7A also presents the varying concentrations for the samples. […] Each rectangle represented a section or table in the greenhouse and the respective Trial sample(s) shown thereon. […] FIG. 13 is a graphical representation of the number of leaves apparent at 30 days after sowing (DAS) and at 60 DAS for samples T1 through T23. […] The amount of chlorophyll present in the leaf for samples T1 through T23 was measured using a soil plant analysis development (SPAD) chlorophyll meter and is shown in FIG. 14. […]
smiles,measurement,setting,value
"NC(N)=O [T13, urea]",SPAD READING 30 DAS,"leaf chlorophyll, SPAD chlorophyll meter, 30 DAS",34.50
same,SPAD READING 60 DAS,"leaf chlorophyll, SPAD chlorophyll meter, 60 DAS",33.33
same,Cob Yield,maize,7.33 g
same,Grain Yield,maize,0.00 g
same,Plant Height 30 DAS,"maize, 30 DAS",124.33 centimeters
same,Plant height 60 DAS,"maize, 60 DAS",159.00 centimeters
same,No. of leaves 30 DAS,"maize, 30 days after sowing, soil or foliar application as per treatment",8.67
same,No. of leaves 60 DAS,"maize, 60 days after sowing, soil or foliar application as per treatment",12.67
same,corn cob development (grains within the cob),"observation by greenhouse section A, B, C",failed to show grains

# Source: patent US20250051243A1, “Nano Bio-Carrier with Plant Additives Combined with Chemical Fertilizers” (Sabic Agri-Nutrients Company, priority 2021, published 2025)
